Results: publication PMC6240063, “An improved genome assembly for Larimichthys crocea reveals hepcidin gene expansion with diversified regulation and function” (Communications Biology, 2018)
Ends that are not written are not given here.

What was measured:
[1] = system: Singapore grouper iridovirus (SGIV); assay: Antiviral activity in SGIV-infected grouper spleen cells; assay type: cell-based; settings: grouper spleen cells pretreated 1 h with 50 µg/mL peptide, SGIV at MOI 2; cytopathic effect, ORF072 and ORF086 expression (real-time PCR), viral titer TCID50; three independent experiments
Protocol: The antiviral activity of synthetic L. crocea hepcidins was tested in grouper spleen cells, in which a viral infection model has already been established. Grouper spleen cells were seeded onto 6-well plates (Thermo Fisher Scientific, USA) for 18 h. The grouper spleen cells were pretreated for 1 h with each synthetic Hamp peptide at a final concentration of 50 µg/mL or with PBS (as a control). After pretreatment, the cells were infected with SGIV at a multiplicity of infection of 2. At 24 h post infection, cytopathic effects in the grouper spleen cells were observed microscopically (Leica Microsystems, Germany). The expression levels of two genes encoding SGIV envelope proteins (ORF072 and ORF086) were measured with real-time PCR. E. coioides β-actin (Ecβ-actin) was amplified as an internal control. The expression level of ORF072 or ORF086 was normalized to Ecβ-actin using the 2^–ΔΔCT method. Moreover, supernatants and infected cell lysates were collected to determine the viral titer 50% tissue culture infectious dose[50]. All data were obtained from three independent experiments with each performed in triplicate.

[2] = system: Bacillus amyloliquefaciens; assay: Minimum inhibitory concentration, liquid growth inhibition assay; assay type: cell-based; settings: gram-positive, lowest concentration giving 100% decrease in optical density, peptide in PBS pH 7.4
Text: (§1) The mature peptides of LcHamp1 (HAMP1: […]), LcHamp2-1/4 (HAMP2-1/4: […]), LcHamp2-2 (HAMP2-2: […]), LcHamp2-3 (HAMP2-3: GSPARCRFCCR CCPGMRGCGICCRF), and LcHamp2-5 (HAMP2-5: […]) were synthesized, oxidized, and purified by GL Biochem (Shanghai) Ltd. (Shanghai, China). Purity of the synthesized peptides was >/95%. The synthetic peptides were reconstituted in phosphate buffered saline (PBS; pH 7.4). We tested the antimicrobial activity of synthesized peptides against the five gram-negative bacteria A. hydrophila, E. coli, V. alginolyticus, V. harvryi, and V. parahemolyticus, and three gram-positive bacteria B. subtilis, B. amyloliquefaciens, and S. aureus using liquid growth inhibition assays. The minimum inhibitory concentration was considered the lowest concentration that induced a 100% decrease in the optical density of the bacterial suspension.

Escherichia coli = assay: as above; assay type: cell-based; settings: gram-negative, lowest concentration giving 100% decrease in optical density, peptide in PBS pH 7.4
Text: as §1

Bacillus subtilis = assay: as above; assay type: cell-based; settings: gram-positive, lowest concentration giving 100% decrease in optical density, peptide in PBS pH 7.4
Text: as §1

Vibrio parahaemloyticus = assay: as above; assay type: cell-based; settings: gram-negative, lowest concentration giving 100% decrease in optical density, peptide in PBS pH 7.4
Text: as §1

Vibrio alginolyticus = assay: as above; assay type: cell-based; settings: gram-negative, lowest concentration giving 100% decrease in optical density, peptide in PBS pH 7.4
Text: as §1

Aeromonas hydrophila = assay: as above; assay type: cell-based; settings: gram-negative, lowest concentration giving 100% decrease in optical density, peptide in PBS pH 7.4
Text: as §1

Staphylococcus aureus = assay: as above; assay type: cell-based; settings: gram-positive, lowest concentration giving 100% decrease in optical density, peptide in PBS pH 7.4
Text: as §1

Vibrio harveyi = assay: as above; assay type: cell-based; settings: gram-negative, lowest concentration giving 100% decrease in optical density, peptide in PBS pH 7.4
Text: as §1

[3] = system: macrophages from L. crocea head kidney; assay: Intracellular iron in macrophages; assay type: cell-based, Larimichthys crocea; settings: 100 ng/mL peptide, 2 h, ICP-MS, versus PBS control, P < 0.05, three independent experiments
Protocol: Six groups of macrophages (1 × 10^6 cells per well) were seeded onto 6-well plates for 18 h. To each of five of the groups, we added one synthetic hepcidin peptide from L. crocea, with a final concentration of 100 ng/mL. The sixth group (control) was treated with PBS. After 2 h incubation, we measured the intracellular iron concentration of macrophages with Inductively Coupled Plasma Mass Spectrometry. The fold change was expressed as the intracellular iron concentration in macrophages treated with synthetic hepcidin peptides versus the intracellular iron concentration in the control macrophages.

[4] = system: five gram-negative bacteria and three gram-positive bacteria; assay: Minimum inhibitory concentration across all tested bacteria; assay type: cell-based; settings: all eight tested bacteria (five gram-negative, three gram-positive); liquid growth inhibition; no antibacterial activity at highest concentration given as >
Text: as §1

Sequence | antiviral activity against SGIV infection [1] | MIC [2] [µM] | MIC (Escherichia coli) [µM] | MIC (Bacillus subtilis) [µM] | MIC (Vibrio parahaemloyticus) [µM] | MIC (Vibrio alginolyticus) [µM] | MIC (Aeromonas hydrophila) [µM] | MIC (Staphylococcus aureus) [µM] | MIC (Vibrio harveyi) [µM] | intracellular iron content of macrophages (regulatory effect on iron metabolism) [3] | minimum inhibitory concentrations for the bacterial species tested [4] [µM]
GSPARCRFCCR CCPGMRGCGICCRF (disulfide) (disulfide (positions not given here)) [HAMP2-3, synthetic, oxidized mature peptide of Larimichthys crocea hepcidin LcHamp2-3] | exhibited antiviral activity | 8 | 16 | 4 | 16 | 16 | 16 | 4 | 16 |  | 
GSPARCRFCCRCCPRMRGCGICCRF (disulfide) (disulfide (positions not given here)) [HAMP2-5, synthetic, oxidized mature peptide of Larimichthys crocea hepcidin LcHamp2-5] | no identifiable antiviral activity | 1 | 0.5 | 0.25 | 0.5 | 0.25 | 1 | 0.5 | 0.5 |  | 
QSHISLCRYCCNCCKNKGCGYCCRF (disulfide (positions not given here)) [HAMP1, synthetic, oxidized mature peptide of Larimichthys crocea hepcidin LcHamp1] | no identifiable antiviral activity |  |  |  |  |  |  |  |  | increases in iron content | > 300
SSAAKCQFCCRCCPDMIGCGICCRF (disulfide (positions not given here)) [HAMP2-1/4] | exhibited antiviral activity |  |  |  |  |  |  |  |  | increases in iron content | > 300
SSAAKCQFCCRCCPRMSGCGVCCRF (disulfide (positions not given here)) [HAMP2-2, synthetic, oxidized mature peptide of Larimichthys crocea hepcidin LcHamp2-2] | no identifiable antiviral activity |  |  |  |  |  |  |  |  | no antibacterial activity, antiviral activity or regulatory effect on iron metabolism | > 300
